# Reference: patent US4582823A, “Method for treating schizophrenia and medicaments therefor” (Warner-Lambert Company, priority 1984, dated 1986)
# Entries after “also recorded” stand apart in the source; their conditions may differ. Where two headings read alike, the source gives them in different places.
# Key:
# Sprague-Dawley male rats = assay: rat locomotor activity (darkened actophotometer, 30 minutes); assay type: in vivo; conditions: for Locomotor Activity, % Of Control ± SEM: 1 hr before test
# Method: Sprague-Dawley male rats were used.
# Each animal was then placed in a darkened actophotometer and locomotor activity was recorded automatically by a microcomputer for 30 minutes. Locomotor activity data were compared to the mean response of vehicle treated control and were expressed as percentage of activity relative to control.
# [1] = system: haloperidol-induced dystonia in Cebus monkeys; conditions: for # showing dystonia/Total: time 0
# Method: (§1) On test days, animals were given N^6 -(2,2-diphenylethyl)adenosine before or after haloperidol. Drugs were prepared as suspensions in 0.2% Methocel for oral and IP injection. Solutions for IM injections of haloperidol were made using lactic acid and of the adenosine using ethanol.
# [2] = system: haloperidol-induced dystonia in Cebus monkeys; assay: Effect of N^6-(2,2-diphenylethyl)adenosine and haloperidol given together orally (capsule or gavage) on dystonia in Cebus monkeys; conditions: for # showing dystonia/Total: haloperidol 0.5 PO capsule, time 0
# Method: as §1
# [3] = system: haloperidol-induced dystonia in Cebus monkeys; assay: Attempted reversal of haloperidol-induced dystonia in sensitized Cebus monkeys; assay type: in vivo, Cebus monkeys (Cebus appella); conditions: for # Reversed/Total: adenosine 8 mpk IM
# Method: as §1
compound,measurement,setting,value
"O=C(CCCN1CCC(O)(c2ccc(Cl)cc2)CC1)c1ccc(F)cc1 [Haloperidol, reference compound]","Locomotor Activity, % Of Control ± SEM","Sprague-Dawley male rats; oral, Vehicle 5 ml/kg + HPD 0.1 mg/kg, n=8 (run with 3 mg/kg adenosine)",80.4 ± 10.2 % Of Control
same,"Locomotor Activity, % Of Control ± SEM","Sprague-Dawley male rats; oral, Vehicle 5 ml/kg + HPD 0.1 mg/kg, n=9 (run with 1 mg/kg adenosine)",108.6 ± 8.6 % Of Control
same,"Locomotor Activity, % Of Control ± SEM","Sprague-Dawley male rats; oral, Vehicle 5 ml/kg + HPD 0.3 mg/kg, n=9 (run with 1 mg/kg adenosine)",46.0 ± 7.2 % Of Control
same,"Locomotor Activity, % Of Control ± SEM","Sprague-Dawley male rats; oral, Vehicle 5 ml/kg + HPD 0.3 mg/kg, n=17 (run with 3 mg/kg adenosine)",44.0 ± 4.5 % Of Control
same,"Locomotor Activity, % Of Control ± SEM","Sprague-Dawley male rats; oral, Vehicle 5 ml/kg + HPD 1.0 mg/kg, n=9 (run with 1 mg/kg adenosine)",21.8 ± 2.9 % Of Control
same,"Locomotor Activity, % Of Control ± SEM","Sprague-Dawley male rats; oral, Vehicle 5 ml/kg + HPD 1.0 mg/kg, n=17 (run with 3 mg/kg adenosine)",18.0 ± 2.5 % Of Control
same,"Locomotor Activity, % Of Control ± SEM","Sprague-Dawley male rats; oral, Vehicle 5 ml/kg + HPD 3.0 mg/kg, n=9 (run with 3 mg/kg adenosine)",8.2 ± 2.1 % Of Control
same,dystonic reactions in sensitized monkeys,"[1]; Cebus monkey, haloperidol 0.2 mpk PO",dystonic reactions were consistently manifest
same,# showing dystonia/Total,"[1]; adenosine 0 mpk IP, haloperidol 0.05 mpk IM, +30 Min.",5/5
same,onset of action (dystonia),"[1]; monkey, in vivo",3 to 7 min
same,onset of action (dystonia),"[1]; monkey, in vivo, po",60 to 180 min
same,monkeys with dystonia,[2]; haloperidol alone 0.5 mg/kg in a capsule,5 of 5
same,# showing dystonia/Total,[2]; no adenosine,5/5
"OC[C@H]1O[C@@H](n2cnc3c(NCC(c4ccccc4)c4ccccc4)ncnc32)[C@H](O)[C@@H]1O [N^6-(2,2-Diphenylethyl)adenosine]",effect on haloperidol induced inhibition of rat locomotor activity (conclusion),Sprague-Dawley male rats; combination with haloperidol,enhanced haloperidol induced inhibition of rat locomotor activity; also recorded: additive effect in combination with haloperidol
same,"Locomotor Activity, % Of Control ± SEM","Sprague-Dawley male rats; oral, adenosine 1 mg/kg + HPD 0.1 mg/kg, n=9",92.0 ± 2.8 % Of Control
same,"Locomotor Activity, % Of Control ± SEM","Sprague-Dawley male rats; oral, adenosine 1 mg/kg + HPD 0.3 mg/kg, n=9",40.7 ± 4.9 % Of Control
same,"Locomotor Activity, % Of Control ± SEM","Sprague-Dawley male rats; oral, adenosine 1 mg/kg + HPD 1.0 mg/kg, n=9",10.8 ± 2.6 % Of Control
same,"Locomotor Activity, % Of Control ± SEM","Sprague-Dawley male rats; oral, adenosine 1 mg/kg + Vehicle 5 ml/kg, n=9",93.8 ± 8.9 % Of Control
same,"Locomotor Activity, % Of Control ± SEM","Sprague-Dawley male rats; oral, adenosine 3 mg/kg + HPD 0.1 mg/kg, n=8",49.1 ± 10.0 % Of Control
same,"Locomotor Activity, % Of Control ± SEM","Sprague-Dawley male rats; oral, adenosine 3 mg/kg + HPD 0.3 mg/kg, n=17",21.6 ± 5.0 % Of Control
same,"Locomotor Activity, % Of Control ± SEM","Sprague-Dawley male rats; oral, adenosine 3 mg/kg + HPD 1.0 mg/kg, n=17",9.8 ± 2.1 % Of Control
same,"Locomotor Activity, % Of Control ± SEM","Sprague-Dawley male rats; oral, adenosine 3 mg/kg + HPD 3.0 mg/kg, n=9",4.3 ± 1.3 % Of Control
same,"Locomotor Activity, % Of Control ± SEM","Sprague-Dawley male rats; oral, adenosine 3 mg/kg + Vehicle 5 ml/kg, n=17",58.7 ± 5.2 % Of Control
same,alteration of haloperidol-induced inhibition of spontaneous locomotion,"Sprague-Dawley male rats; oral, adenosine 1.0 mg/kg + haloperidol",did not significantly alter the dose-related inhibition of spontaneous locomotion caused by haloperidol
same,enhancement of haloperidol locomotor inhibition,"Sprague-Dawley male rats; oral, adenosine 3.0 mg/kg + haloperidol 0.1 and 0.3 mg/kg",enhanced the locomotor inhibition
same,alteration of locomotion,"Sprague-Dawley male rats; oral, adenosine alone 1.0 mg/kg",did not significantly alter locomotion
same,reduction of locomotion,"Sprague-Dawley male rats; oral, adenosine alone 3.0 mg/kg",50%
same,effect on severity of established dystonia,"[3]; Cebus monkey, adenosine 8 mpk IM after dystonias induced by haloperidol (IM or PO)",no effect on the severity of dystonia
same,reversal of ongoing dystonia (conclusion),"[3]; Cebus monkey, adenosine IM",did not reverse ongoing dystonia induced by haloperidol
same,# Reversed/Total,[3]; +30 Min. after haloperidol 0.05 IM,0/6
same,# Reversed/Total,[3]; +90 Min. after haloperidol 0.5 PO,0/6
same,animals in which haloperidol-induced dystonia was not blocked,"[1]; Cebus monkey, adenosine 8 mg/kg IM, haloperidol 0.5 mg/kg PO",3/6
same,blocking of haloperidol-induced dystonia by IM route (in words),"[1]; Cebus monkey, adenosine IM versus other routes",less effective in blocking haloperidol-induced dystonia than when administered by other routes
same,intensity of dystonia in animals displaying dystonia after combined treatment,"[1]; Cebus monkey, adenosine IP + haloperidol, relative to absence of the adenosine",less intense than those seen in the absence of the adenosine
same,prevention of development of dystonia (in words),"[1]; Cebus monkey, adenosine IP together with haloperidol PO",prevented the development of dystonia in a dose dependent fashion
same,# showing dystonia/Total,"[1]; adenosine 0.5 mpk IP, haloperidol 0.5 mpk PO",5/5
same,# showing dystonia/Total,"[1]; adenosine 1.5 mpk IP, haloperidol 0.5 mpk PO",4/6
same,# showing dystonia/Total,"[1]; adenosine 5 mpk IP, haloperidol 0.05 mpk IM, +30 Min.",0/6
same,# showing dystonia/Total,"[1]; adenosine 5 mpk IP, haloperidol 0.5 mpk PO",1/6
same,# showing dystonia/Total,"[1]; adenosine 20 mpk IP, haloperidol 0.05 mpk IM, +30 Min.",0/6
same,# showing dystonia/Total,"[1]; adenosine 20 mpk IP, haloperidol 0.5 mpk PO",0/6
same,depression induced by the adenosine,"[1]; monkey, in vivo",induced depression prior to the expected time of onset of the effects of haloperidol
same,onset of action (depression),"[1]; monkey, in vivo, ip",5 to 10 min
same,prevention of dystonia (conclusion),"[1]; sensitized Cebus monkeys, adenosine administered prior to haloperidol",prevented the dystonia normally produced by haloperidol
same,effect on development or severity of dystonias (in words),"[2]; Cebus monkey, adenosine together with haloperidol orally by capsule",did not appreciably affect the development or severity of dystonias
same,animals with marked reduction in the severity of dystonia,[2]; adenosine 5 mg/kg PO + haloperidol 0.5 mg/kg in a solution by gavage,4 of 5
same,# showing dystonia/Total,[2]; adenosine 5 mpk PO capsule,5/6
same,"prevention of dystonia, same capsule (conclusion)",[2]; adenosine and haloperidol in the same capsule,did not prevent dystonia induced by haloperidol
same,monkeys with dystonia,[2]; haloperidol 0.5 mg/kg with adenosine 5 mg/kg in a capsule,5 of 6
same,"severity of dystonia, gavage (conclusion)",[2]; solution of adenosine and haloperidol by gavage,reduced severity of dystonia
